From patent publication US20240002428A1, “STORAGE STABLE CAGED HAPTENS” (VENTANA MEDICAL SYSTEMS, INC., priority 2021, published 2024)

Test: Hydrolytic stability study of caged haptens at elevated temperature (reverse phase HPLC)
Type: physicochemical
Settings: 100 mM PBS (pH 7.2), 37° C. oven, after 50 days of storage
Protocol: To study the hydrolytic stability of caged hapten conjugates having any one of Formulas (IVA), (IVB), or (VA)-(VF) (see FIG. 9) model compounds were subjected to a stability study at elevated temperatures.
Model compounds tested were the NP hapten with two different caging groups along with caged DIG, as set forth below:
The samples of caged NP and caged DIG were stored in 100 mM PBS (pH 7.2) in a 37° C. oven. The buffer and pH were representative of storage conditions for an antibody conjugate. A temperature of 37° C. was chosen to stress the sample and accelerate hydrolytic events. Normal storage conditions or the antibody conjugate were believed to be about 4° C. Aliquots of the samples were removed at regular intervals and tested by reverse phase HPLC on a Waters XBridge column on a Waters Alliance e2695 running Empower 3 (Waters). Each sample HPLC trace was examined for evidence of decaging or other forms of decomposition. […] The caged DIG testing was monitored out to 120 days and <0.5% hydrolysis was still observed at this point.

## COc1cc(Cn2nc(C(=O)NCCN)cc2[N+](=O)[O-])cc(OC)c1OCOP(=O)(O)O [generation 2 caged-NP]
  hydrolysis (caged hapten hydrolyzed to the native hapten, percentage of the original material): ~6%

## COc1cc(Cn2nc(C(=O)NCCN)cc2[N+](=O)[O-])cc(OC)c1OP(=O)(O)O [generation 1 caged-NP]
  hydrolysis (caged hapten hydrolyzed to the native hapten, percentage of the original material): ~15.5%
